In one series the test system is DENV3 (H87 strain). Put plainly: Cell-based antiviral assay, viral RNA in supernatant of infected Vero cells (RT-qPCR). As to conditions: 72 h, viral RNA 3 days after infection. Here is the method:
(§1) The experiments were performed in triplicate.

The next series deals with DENV2 16681 strain. The series is described as above. Particulars: Dengue virus, 72 h; DENV2 16681, Vero cells, viral RNA 3 days after infection. The procedure:
as §1

The subject of another series is DENV4 (H241 strain). The description is as above. Particulars: 72 h, viral RNA 3 days after infection. The procedure: as §1
In series [1] the test system is recombinant DENV2 (WT, C780A, C780Q NS5). The class given is cell-based.
For a further series, the system named is DENV1–4 infections. Put plainly: Cell-based antiviral assay, summary over serotypes. Particulars: range over DENV1–4; read-out: EC50 values, antiviral activities. The procedure:
as §1

The test system of the next series is DENV1 (Mochizuki strain). The series can be described thus: Cell-based antiviral assay, viral RNA in supernatant of infected Vero cells (RT-qPCR). The arrangement: species or system Dengue virus serotype 1 (DENV1). As to conditions: Dengue virus, 72 h, viral RNA 3 days after infection. Here is the method:
as §1

The subject of a further series is DENV2 P04/08 strain. The series is described as above. Particulars: 72 hours after infection.
In another series the target is T1, full-length DENV4 NS5 (Dengue virus type 4, UniProt P09866).
T1 construct: full-length NS5 proteins, comprising the N-terminal MTase and the C-terminal RdRp; His-tag (N, cleaved yes); SUMO (N, cleaved yes); made in house; host or cells: E. coli KRX
The series can be described thus: biochemical. Particulars: read-out: IC50 Polymerase assay.

The next series concerns the target T2, full-length DENV3 NS5 (Dengue virus type 3, UniProt P27915).
T2 construct: full-length NS5 proteins, comprising the N-terminal MTase and the C-terminal RdRp; His-tag (N, cleaved yes); SUMO (N, cleaved yes); made in house; host or cells: E. coli KRX
Put plainly: biochemical.

Another series has as its system Vero cells. Put plainly: Cytotoxicity, WST-1 assay. The class given is cell-based. Particulars: two days culture. The procedure:
The cytotoxic activities of the compounds were tested using a WST-1 assay (Roche Diagnostics), according to the manufacturer’s instructions. […] Ten μL of WST-1 solution was added to each well, and the cells were further incubated for 30 min. The absorbance was measured at 450 nm, with subtraction of the nonspecific background at 650 nm.

Series [2] concerns NS5 proteins from DENV1–4. Type of series: biochemical. Particulars: range over NS5 proteins from DENV1–4; read-out: IC50 values, RdRp activities.

Read-outs that look alike come from different tables or passages of the source.

Take `CC(=O)Oc1ccc2oc(=O)sc2c1` [RK-0404678, (2-Oxo-1,3-benzoxathiol-5-yl) acetate]: the EC50 with DENV3 (H87 strain) is 29.4 ± 1.8 µM; with DENV2 16681 strain, 6 ± 0.3 µM; with DENV4 (H241 strain) it was 31.9 ± 2.8 µM; in series [1] (DENV2 NS5 C780A mutant virus (Site 1)), 3.3 ± 1.1 µM; in [1] (DENV2 NS5 C780Q mutant virus (Site 1)) it was 12.8 ± 2.2 µM; in series [1] (WT (recombinant) DENV2 virus) it was 7.1 ± 0.67 µM. The EC50 is 6 to 31.9 µM in the series with DENV1–4 infections and 29.5 ± 4.2 µM with DENV1 (Mochizuki strain). For the same compound, the “antiviral effect on DENV2 P04/08 strain compared with 16681 strain” value in the series with DENV2 P04/08 strain was “comparable effect”. Further, the figures for the concentration for half-maximal inhibition (IC50) (on full-length DENV4 NS5; at full-length DENV3 NS5; in series [2]) were 445 ± 23 µM, 287 ± 11 µM and 46.2 to 445 µM, respectively. Besides, in the series on Vero cells, the “cytotoxicity in Vero cells” value is reported as “marginal cytotoxicity even at the highest concentration (50 μM)”.

These data come from publication PMC6886872, “Discovery of a small molecule inhibitor targeting dengue virus NS5 RNA-dependent RNA polymerase” (PLoS Neglected Tropical Diseases, 2019).
